Results as given in patent US20050054629A1, “Compounds and methods of treating cell proliferative diseases” (priority 2002, published 2005).

Experiments:
[1] = test system: NIH3T3 cells; test: Colony formation assay with constitutively activated Ras (RasV12) and Rac (RacV12); format: cell-based, mouse; parameters: key to Colony formation: −: no effect of the compound was observed; +: an effect of the compound was observed
Description: (§1) The impact of the compounds on Ras and Rac signaling pathways was analysed with two reporter systems described by Imler (Nature 1988) and Lin (Science, 1995) respectively on one hand, and by a colony formation assay in the presence of constitutively activated Ras (RasV12) and Rac (RacV12) on the other hand. For this latter experiment, fifty percent confluent NIH3T3 cells in a 10 cm diameter petri dish were transfected with 0.5 μg pSV2-RasV12 or 0.5 μg pEXV RacV12 plasmids plus 100 ng of pSV2-neomycin plasmid using Lipofectamine-Plus reagent (Invitrogen) according to the manufacturer's instructions. Forty-eight hours later, cells were trypsinised, splitted to ⅓, and incubated in the presence of complete medium supplemented with 400 μg/ml geneticin (Invitrogen) and different doses of compound (1, 10, 17.5, 25 and 50 μM) until emerging resistant clones appear (2-3 weeks). The medium was renewed every 3 days. Colonies with a minimum of 50 cells were counted after staining with Fuschin 2%.

[2] = test system: MDA-MB-231 cells; test: Matrigel invasion assay (Boyden chamber); format: cell-based, human
Outline: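 MDA-MB-231 cells were pretreated overnight with compound (1, 10, 17.5, 25, 50 μM). 10^5 cells in serum-free 0.1% BSA medium with compound were placed on 8 μm membranes coated with Matrigel (125 μg/cm^2), with 10% FBS plus compound below. After 6 h at 37 °C, cells on the filter underside were Diff-Quick stained and counted.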

[3] = test system: H460; test: Cytoskeleton analysis, actin staining (FITC-phalloidin); format: cell-based, human; conditions: 24 h treatment
Description: (§2) Since major rearrangements of cytoskeleton are observed in tumor cells and since the small GTPases are known to regulate these events, analysis of actin cytoskeleton was performed. Subconfluent cells seeded onto coverslips were treated with different concentration of compound (1, 10, 17.5, 25 and 50 μM) or vehicle for 24 h, before being fixed in 4% formaldehyde for 15 min., permeabilized in 0.2% Triton X100 for 5 minutes and incubated in PowerBlock (Biogenex) for 10 min. Actin filaments were stained with 0.5 μg/ml fluorescein isothiocyanate (FITC)-labelled phalloidin for 1 hour. Analysis was performed using an inverted fluorescent microscope.

[4] = test system: HCT116; test: as above; format: cell-based, human; conditions: 24 h treatment
Description: as §2

[5] = test system: MDA-MB-231 cells; test: Migration assay (Boyden chamber, non-coated filters); format: cell-based, human; conditions: MDA-MB-231, Boyden chamber
Description: One day after seeding, 10^6 MDA-MB-231 cells were treated overnight with different concentrations of compounds (1, 10, 17.5, 25 and 50 μM). Cells were collected with Versene (Invitrogen), counted with trypan blue exclusion, rinsed twice in serum-free medium containing 0.1% BSA and resuspended in serum-free medium containing 0.1% BSA plus the appropriate concentration of compound. 10^5 treated cells were placed in the upper chamber. Medium containing 10% of FBS plus the appropriate concentration of compound was placed in the lower chamber as a chemoattractant. The Boyden chamber was incubated 6 hours at 37° C. before the cells were fixed and stained with Diff-Quick (Dade-Berhing). Cells on the upper part of the filters were removed using a cotton swab. Cells on the underside of the filters were visualised and counted under light microscope.
The migration assay was performed the same way, using non-coated filters.

[6] = test system: MRC-5; test: Cytotoxicity assay (MTT), 6 days; format: cell-based; conditions: Homo sapiens, MRC5, 144 h, 6 days of treatment, read-out: Toxicity 6d (IC 50, μM) MRC-5
Outline: (§3)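 Survival is measured by formazan absorbance at 550 nm following 3 h incubation with 0.5 mg/ml MTT at 37° C. Treatment lasts 6 days at compound concentrations up to 50 μM with DMSO held at 1%. The 50% inhibitory concentration derives from surviving fraction.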

[7] = test system: MCF10-A; test: Cytotoxicity assay (MTT), 6 days; format: cell-based; conditions: Homo sapiens, MCF-10A, 144 h, 6 days of treatment, read-out: Toxicity 6d (IC 50, μM) MCF10-A
Outline: as §3

[8] = test system: NIH3T3 mouse fibroblasts; test: Cytotoxicity assay (MTT), 6 days; format: cell-based; conditions: NIH3T3, 144 h, 6 days of treatment, read-out: Toxicity 6d (IC 50, μM) NIH3T3
Outline: as §3

[9] = test system: H460 lung carcinoma; test: Cytotoxicity assay (MTT), 6 days; format: cell-based; conditions: Homo sapiens, NCI-H460, 144 h, 6 days of treatment, read-out: Toxicity 6d (IC 50, μM) H460
Outline: as §3

[10] = test system: MCF-7 breast carcinoma; test: Cytotoxicity assay (MTT), 6 days; format: cell-based; conditions: Homo sapiens, MCF7, 144 h, 6 days of treatment, read-out: Toxicity 6d (IC 50, μM) MCF7
Outline: as §3

[11] = test system: MDA-MB-231 breast carcinoma; test: Cytotoxicity assay (MTT), 6 days; format: cell-based; conditions: Homo sapiens, MDA-MB-231, 144 h, 6 days of treatment, read-out: Toxicity 6d (IC 50, μM) MDA231
Outline: as §3

[12] = test system: HCT116 colon adenocarcinoma; test: Cytotoxicity assay (MTT), 6 days; format: cell-based, human; conditions: Homo sapiens, HCT-116, 144 h, 6 days of treatment, read-out: Toxicity 6d (IC 50, μM) HCT116
Outline: as §3

[13] = test system: cell architecture; test: Cell architecture modification, phase contrast; format: cell-based; parameters: key: −: no effect of the compound was observed; +: an effect of the compound was observed
[14] = test system: HCT116 cells; test: Anchorage-independent growth assay (soft agar / Matrigel); format: cell-based, human; conditions: Homo sapiens, HCT-116, 168 h; HCT116, 3-dimensional growth, 1 week
Description: In order to evaluate the effect of the compounds on the capacity of tumor cells to grow without anchorage, HCT116 cells were seeded either in agar or in Matrigel (BD, France). For 3D growth experiment in soft agar in 24-well plates, 5.10^3 HCT116 cells were resuspended in 250 μl of complete medium containing 0.3% soft-agar (Difco) and different concentrations of compound (0.1, 1, 10, 17.5, 25 and 50 μM). Cells were then poured on a solidified layer of medium containing 0.5% of soft-agar plus the compound at the same concentration than in the upper layer. Cells were incubated at 37° C. for 1 week before they were analysed using a phase contrast microscope (Nikon). For 3D growth experiment in Matrigel, 10^4 HCT116 cells were resuspended in 300 μl of complete medium containing 5 mg/ml Matrigel (BD, France) and different concentrations of compound (0.1, 1, 10, 17.5, 25 and 50 μM), and poured in 24-well plates. After solidification at 37° C. for 15 min., complete medium containing the compound was added to each well. Cells were incubated for 1 week before they were collected using Matrisperse (BD, France) according to the manufacturer's instructions. After recovery, alive cells were counted with trypan blue exclusion.

[15] = test system: Ras; test: Ras-dependant signaling pathway analysis (reporter system); format: cell-based; parameters: key: −: no effect of the compound was observed; +: an effect of the compound was observed
Description: as §1

[16] = test system: NIH3T3; test: Cytoskeleton analysis, actin staining (FITC-phalloidin); format: cell-based, mouse
Description: as §2

## CCCc1ccccc1OCCCCCOc1coc(CO)cc1=O [EH18900, 5-[5-(2-Propylphenyloxy)pentyloxy]-2-(hydroxymethyl)-4H-pyran-4-one]
[1]
  Colony formation: +
[1]; NIH3T3 transfected with RasVal12
  Ras-dependent neoR clones formation: inhibited
[2]
  concentration giving an increase in invasive properties of MDA-MB-231 cells: 50 µM
[2]; MDA-MB-231, Boyden chamber, matrigel
  Invasion: Increase
[3]
  Cell architecture modification actin staining H460: cell spreading
[4]
  Cell architecture modification actin staining HCT116: cell spreading
[5]
  Migration: no effect
[6]
  IC50: 17.5 µM
[7]
  IC50: 50 µM
[8]
  IC50: 0.5 µM
[9]
  IC50: 40 µM
[10]
  IC50: 30 µM
[11]
  IC50: > 50 µM
[12]
  IC50: 35 µM
[13]
  Cell architecture modification phase contrast: +
[14]
  IC50: 1 to 5 µM
[15]
  Small GTPases activities Ras: −
[16]; 24 h treatment
  Cell architecture modification actin staining (R: ruffles; FC: focal complexes) NIH3T3: R-, FC+
[16]; NIH3T3, actin staining
  concentration at which specific inhibition of membrane ruffles and increase in the number of stress fibers was observed: 10 µM
